Measurements as given in patent US20060116343A1, “Sphingosine kinase-1 mediates gene expression regulation of a monocyte chemoattractant protein-1 gene” (priority 2004, published 2006).

What was measured:
Assay type in all cases: cell-based, human
[1] = test system: MCP-1 protein secretion from HMVECs; assay: MCP-1 ELISA of HMVEC supernatant; conditions: 24 hours; for effect of inhibitor pretreatment on induced MCP-1 protein secretion: DMS 10 μM, Bay11-7092 10 μM, GF109203x 1 μM, PD98059 10 μM, stimulation with Thrombin 100 nM, PAR-1-AP 100 nM or (Thrombin 0.1 ng/ml); for MCP-1 protein secretion in response to stimulus (ELISA): thrombin 100 nM or varying concentrations of PAR-activating peptides
Procedure: HMVECs were placed into culture and stimulated with Thrombin (100 nM) or varying concentrations of PAR-activating peptides. 24 hours later, we used ELISA to detect secretion of MCP-1 into supernatant.
MCP-1 ELISA—HMVECs were placed into culture in 96-well dishes (2×10^3 cells/well) and grown for 24 hours in complete growth media. Cells were transfected with control non-silencing siRNA or siRNAs for hSK1 or hSK2 in serum-free Opti-MEM (Gibco) for 4 hours. Cells were then allowed to grow for 24 hours in media containing 10% FBS, after which the cells were serum starved in 0.5% FBS media overnight. Cells were subsequently stimulated with fresh 0.5% FBS containing media and incubated under various experimental conditions for an additional 24 hours. Where indicated, cells were pre-incubated with specific compound inhibitors, for 20 minutes, prior to stimulation. Supernatants were collected and analyzed by ELISA (Cell Sciences).
HMVECs were transfected with siRNAs (1.6 μg), hSK1-specific, hSK2-specific or control non-silencing siRNAs. After 48 hours, cells were stimulated with Thrombin (100 nM), PAR-1-AP (300 μM) or PAR-4-AP (600 μM). ELISA was performed to detect MCP-1 secretion into cell supernatant. […] Furthermore, basal levels of MCP-1 protein secretion appeared to be effected as well, as the level of MCP-1 protein secretion in cells that were unstimulated or stimulated with PAR-4-AP was decreased from cells transfected with hSK1 specific siRNA.
HMVECs were placed into culture overnight, and pretreated with inhibitors to hSK (DMS 10 μM), NF-κB (Bay11-7092 10 μM), PKC (GF109203x 1 μM), or Erk (PD98059 10 μM) prior to stimulation with Thrombin (100 nM), PAR-1-AP (TFLLRN 100 nM), or (Thrombin 0.1 ng/ml). ELISAs were performed 24 hours after stimulation to measure the amount of MCP-1 secretion. […] Furthermore we observed that NF-κB activity is a prerequisite for MCP-1 expression as well, as pretreatment with the NF-κB inhibitor, Bay11-7092, abrogated the induction of MCP-1 protein secretion by all agonists.
HMVECs were placed into culture overnight, and pretreated with inhibitors to hSK (DMS 10 μM), NF-κB (Bay11-7092 10 μM), PKC (GF109203×1 μM), or Erk (PD98059 10 μM) prior to stimulation with 5 μM S1P. ELISAs were performed to detect the levels of secreted MCP-1 protein. […] There was no elevation of MCP-1 protein by the external addition of S1P. Therefore, we rule out a role for S1P receptors in the hSK-dependent release of MCP-1 from HMVECs.

[2] = test system: MCP-1 gene expression in HMVECs; assay: cDNA microarray analysis of gene expression in stimulated HMVECs; conditions: four hours; for MCP-1 gene expression in response to stimulus (microarray): thrombin 100 nM or TNF-α 20 ng/ml
Procedure: In an effort to rapidly assess the potential overall role of SK1 in endothelial cell function, a cDNA microarray analyses was performed in HMVEC in the absence and presence of the SK1 inhibitor DMS. The cells were stimulated through two receptor subtypes: G-protein coupled receptors, for which the Protease Activate Receptor (PAR) family was utilized with thrombin as the agonist and cytokine receptors with TNF-α as the agonist
Cell Culture—Adult human microvascular endothelial cells (HMVECs) (Cambrex) were cultured in EGM complete media (Cambrex). Cells were used between the third and sixth passages for all studies.
Microarray Study—Adult human microvascular endothelial cells (HMVECs) (Cambrex) were placed into culture (5% FBS) and stimulated with thrombin (100 nM) or TNF-α (20 ng/ml) in the absence or presence of DMS (10 μM), a potent inhibitor of sphingosine kinase. After four hours of stimulation, RNA was isolated (Tri-Reagent, Bio-Mol), DNAse treated and cleaned using the RNeasy maxi kit (Qiagen). Upon validation of RNA purity using the Agilent 2100 Bioanalyzer, RNA was then subjected to cDNA microarray analyses.
A cDNA microarray containing 3563 cDNA clones was used in this study. In the gene expression studies two types of replications were used, biological and technical. Duplicate biological samples were harvested for each experimental condition for the initial microarray analyses. Additionally technical replication was employed as all samples were run in triplicate on separate microarrays. The microarray data from each sample were subjected to outlier removal based on technical replication and normalization based on both the technical and biological replication. The normalization consisted of an initial normalization between hybridization replicates within a single sample, followed by a secondary normalization across all samples within the study (Shaw et al., J Mol Microbiol Biotechnol, 2003, 5:105-122). […] After cleanup and subsequent normalizations, a single ratio was calculated for each treatment to its assigned control. […]

[3] = test system: MCP-1 transcripts in HMVECs; assay: Quantitative RT-PCR of MCP-1 transcripts in stimulated HMVECs; conditions: thrombin 100 nM
Excerpt: In the presence of hSK1-specific siRNAs, induction of MCP-1 was inhibited whereas in the presence of hSK2-specific or control non-silencing siRNAs, MCP-1 induction was not affected.
Evaluation of siRNA Transfection Efficiency and Silencing Capabilities—Small interfering RNAs (siRNAs) were designed and synthesized to target either sequences for hSK1, SEQ ID NO: 1 ([…]) or hSK2, SEQ ID NO:2 ([…]) transcripts as well as control non-silencing siRNA, SEQ ID NO:3 ([…]), which has no sequence target in the human genome (Qiagen). The oligonucleotides were fluorescein-conjugated on the 3′ end of the sense strand, which facilitated visualization of transfection efficiency by fluorescence confocal microscopy (LSM 510, Zeiss). […] For experimental studies RNA were isolated, DNAse treated and subjected to quantitative RT-PCR analyses to detect transcript levels of hSK1, hSK2, MCP-1 and control 18S transcripts using predesigned primers from Applied Biosystems. […]
Quantitative RT-PCR—HMVECs were placed into culture overnight and stimulated with thrombin (100 nM) after which RNA was isolated and DNAse treated. TaqMan® quantitative RT-PCRs were performed in triplicate as validation of microarray analyses according to manufacturers instructions (Applied Biosystems). The quantity mean for each detector was normalized to that of the 18S detector.

CCCCCCCCCCCCC/C=C/[C@@H](O)[C@@H](N)COP(=O)(O)O [S1P, Sphingosine-1-phosphate]
MCP-1 protein secretion after external addition of S1P ([1]; HMVECs, 5 μM S1P): no elevation

CN(C)CCCn1cc(C2=C(c3c[nH]c4ccccc34)C(=O)NC2=O)c2ccccc21 [GF109203x]
effect of inhibitor pretreatment on induced MCP-1 protein secretion ([1]; HMVECs): intermediate effect

thrombin
MCP-1 gene expression in response to stimulus (microarray) [2]: induced
MCP-1 transcripts in response to stimulus (quantitative RT-PCR) [3]: induction of MCP-1 transcripts
MCP-1 protein secretion in response to stimulus (ELISA) ([1]; HMVECs): augmented

CCCCCCCCCCCCC/C=C/[C@@H](O)[C@H](CO)N(C)C [DMS, dimethylsphingosine]
effect on thrombin- and TNF-α-induced MCP-1 gene expression (microarray) ([2]; DMS 10 μM added prior to stimulation with thrombin 100 nM or TNF-α 20 ng/ml): inhibited
effect on thrombin- or PAR-1 agonist peptide-stimulated secretion of MCP-1 protein ([1]; HMVECs pretreated with DMS prior to stimulation): inhibited secretion of MCP-1 protein
effect of inhibitor pretreatment on induced MCP-1 protein secretion ([1]; HMVECs): hSK activity is required

COc1cccc(-c2cc(=O)c3ccccc3o2)c1N [PD98059]
effect of inhibitor pretreatment on induced MCP-1 protein secretion ([1]; HMVECs): no effect

TNF-α
MCP-1 gene expression in response to stimulus (microarray) [2]: induced

TFLLRN [PAR-1-AP]
MCP-1 protein secretion in response to stimulus (ELISA) ([1]; HMVECs): stimulated secretion of MCP-1
